In PubChem BioAssay AID330 (DTP/NCI, 2004) one finds T/C data, which are given here for 27 compounds.

The subject of the experiment is P388 leukemia ip, CD2F1 mice, survival T/C. Kind of experiment: NCI In Vivo Anticancer Drug Screen. Data for tumor model P388 Leukemia (intraperitoneal) in CD2F1 (CDF1) mice. The settings on record: endpoint: median survival time, higher = longer survival. In short, it runs like this:
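Mice carrying the transplanted tumor received test compound or vehicle. Survival was recorded in each group, and the value is the treated-group measurement divided by that of the vehicle-treated control group.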

[1] abbreviates: dose: 50.0 mg/kg/injection, schedule: Q01DX005 (ip), vehicle: saline with Tween-80.
Setting [2] is: dose: 100.0 mg/kg/injection, schedule: Q01DX005 (ip), vehicle: saline with Tween-80.
[3] abbreviates: dose: 60.0 mg/kg/injection, schedule: Q01DX005 (ip), vehicle: saline with Tween-80.
Setting [4] is: dose: 50.0 mg/kg/injection, schedule: Q01DX009 (ip), vehicle: saline with Tween-80.
The mark [5] stands for this setting: dose: 100.0 mg/kg/injection, schedule: Q01DX009 (ip), vehicle: saline with Tween-80.
[6] abbreviates: dose: 200.0 mg/kg/injection, schedule: Q01DX009 (ip), vehicle: saline with Tween-80.
The mark [7] stands for this setting: dose: 100.0 mg/kg/injection, schedule: Q04DX003 (ip), vehicle: saline with Tween-80.
[8] abbreviates: dose: 25.0 mg/kg/injection, schedule: Q04DX003 (ip), vehicle: saline with Tween-80.
Where [9] appears, read: dose: 50.0 mg/kg/injection, schedule: Q04DX003 (ip), vehicle: saline with Tween-80.
The mark [10] stands for this setting: dose: 50.0 mg/kg/injection, schedule: Q01DX009 (ip), vehicle: saline.
[11] abbreviates: dose: 100.0 mg/kg/injection, schedule: Q01DX009 (ip), vehicle: saline.
Where [12] appears, read: dose: 50.0 mg/kg/injection, schedule: Q01DX005 (ip), vehicle: Klucel (hydroxypropylcellulose) (HPC).
Where [13] appears, read: dose: 100.0 mg/kg/injection, schedule: Q01DX005 (ip), vehicle: Klucel (hydroxypropylcellulose) (HPC).
The mark [14] stands for this setting: dose: 200.0 mg/kg/injection, schedule: Q01DX005 (ip), vehicle: Klucel (hydroxypropylcellulose) (HPC).

Where “and” joins values, the source holds several entries; their conditions need not be identical. Equal entries are not always repeated. Inconclusive results and toxic doses are left out.

Consider `Cc1ccc(-c2cnc3c(n2)c(=O)[nH]c(=O)n3C)cc1`, for which the T/C by setting is: (dose: 100.0 mg/kg/injection, schedule: Q04DX003 (ip), vehicle: Klucel (hydroxypropylcellulose) (HPC)) 103 % of control; (dose: 200.0 mg/kg/injection, schedule: Q04DX003 (ip), vehicle: Klucel (hydroxypropylcellulose) (HPC)) 98 % of control.

As to `CCN(CC)CCOc1ccc(Cl)c(C)c1`, the T/C under setting [1] is 101 % of control and the T/C under setting [2] is 103 % of control.

`CN(C)c1ccc(C(=O)C2(Cl)CCCC(C)(C)C2)cc1` (centres undefined): the T/C by setting is: (dose: 100.0 mg/kg/injection, schedule: Q04DX002 (ip), vehicle: Klucel (hydroxypropylcellulose) (HPC)) 102 % of control; (dose: 200.0 mg/kg/injection, schedule: Q04DX002 (ip), vehicle: Klucel (hydroxypropylcellulose) (HPC)) 99 % of control; (dose: 400.0 mg/kg/injection, schedule: Q04DX002 (ip), vehicle: Klucel (hydroxypropylcellulose) (HPC)) 94 % of control.

As to `COc1ccc(CCNC2Oc3ccc([N+](=O)[O-])cc3-c3nc(C)c(C#N)cc32)cc1OC` (centres undefined), the T/C by setting is: (dose: 15.0 mg/kg/injection, schedule: Q01DX005 (ip), vehicle: saline with Tween-80) 98 % of control; (dose: 30.0 mg/kg/injection, schedule: Q01DX005 (ip), vehicle: saline with Tween-80) 98 % of control; under setting [3], 91 % of control and 92 % of control.

For `CC(=O)C(CO)C(=O)Nc1ccccc1` (centres undefined), the T/C reads like this: under setting [4], 100 % of control; under setting [5], 95 % of control; under setting [6], 95 % of control.

On to `CCOc1c(N=Nc2cccc(Cl)c2)c(C)nn1C(=S)SC`, for which the T/C (dose: 60.0 mg/kg/injection, schedule: Q01DX005 (ip), vehicle: Klucel + Tween-80) was 94 % of control; the T/C (dose: 120.0 mg/kg/injection, schedule: Q01DX005 (ip), vehicle: Klucel + Tween-80) was 98 % of control; the T/C (dose: 240.0 mg/kg/injection, schedule: Q01DX005 (ip), vehicle: Klucel + Tween-80) was 99 % of control.

In the case of `O=C(O)/C(Br)=C(/Br)C(=O)O`, the T/C (dose: 100.0 mg/kg/injection, schedule: Q04DX002 (ip), vehicle: saline with Tween-80) is 106 % of control and the T/C (dose: 200.0 mg/kg/injection, schedule: Q04DX002 (ip), vehicle: saline with Tween-80) is 100 % of control.

For `CC1(C)N=C(N)N=C(N)N1c1ccc(OCC(=O)N2CCOCC2)cc1`, the T/C was 100 % of control (dose: 50.0 mg/kg/injection, schedule: Q04DX003 (ip), vehicle: saline); 110 % of control (dose: 66.0 mg/kg/injection, schedule: Q01DX009 (ip), vehicle: saline sonified); 120 % of control (dose: 100.0 mg/kg/injection, schedule: Q01DX009 (ip), vehicle: saline sonified); 95 % of control (dose: 100.0 mg/kg/injection, schedule: Q04DX003 (ip), vehicle: saline).

Turning to `COc1ccc(C2OC23Cc2ccccc2C3=O)cc1OC` (centres undefined), the T/C reads like this: under setting [4], 109 % of control; under setting [5], 100 % of control; under setting [6], 88 % of control.

On to `Nc1cnc(CO)nc1C(=O)O`, for which the T/C (dose: 50.0 mg/kg/injection, schedule: Q01DX005 (ip), vehicle: saline) is 100 % of control; the T/C (dose: 100.0 mg/kg/injection, schedule: Q01DX005 (ip), vehicle: saline) was 102 % of control; the T/C (dose: 200.0 mg/kg/injection, schedule: Q01DX005 (ip), vehicle: saline) was 107 % of control.

Consider `CN(C)c1cc[n+](C=O)cc1`, for which the T/C by setting is: (dose: 3.75 mg/kg/injection, schedule: Q01DX005 (ip), vehicle: saline) 102 % of control; (dose: 7.5 mg/kg/injection, schedule: Q01DX005 (ip), vehicle: saline) 95 % of control; (dose: 15.0 mg/kg/injection, schedule: Q01DX005 (ip), vehicle: saline) 100 % of control.

As to `CC1=NCCN=C(C)C1N=Nc1ccccc1`, the T/C was 90 % of control under setting [7] and 90 % of control (dose: 200.0 mg/kg/injection, schedule: Q04DX003 (ip), vehicle: saline with Tween-80).

Take `C=CN1C(=O)NC2(CCCCC2)C1=O`: the T/C by setting is: under setting [8], 100 % of control; under setting [9], 100 % of control; under setting [7], 90 % of control.

Turning to `C[N+]1(C)CCOCC1`, the T/C is 94 % of control (dose: 1.56 mg/kg/injection, schedule: Q01DX009 (ip), vehicle: saline); 100 % of control and 101 % of control (dose: 6.25 mg/kg/injection, schedule: Q01DX009 (ip), vehicle: saline); 98 % of control (dose: 12.5 mg/kg/injection, schedule: Q01DX009 (ip), vehicle: saline); 88 % of control (dose: 25.0 mg/kg/injection, schedule: Q01DX009 (ip), vehicle: saline).

On to `Fc1ccc(C(Nc2nncs2)Nc2nncs2)cc1F`, for which the T/C is 101 % of control under setting [3]; 101 % of control (dose: 120.0 mg/kg/injection, schedule: Q01DX005 (ip), vehicle: saline with Tween-80); 110 % of control (dose: 240.0 mg/kg/injection, schedule: Q01DX005 (ip), vehicle: saline with Tween-80).

For `CCCCN1NC1(C)c1ccccc1` (centres undefined), the T/C reads like this: under setting [1], 108 % of control; under setting [2], 104 % of control; (dose: 200.0 mg/kg/injection, schedule: Q01DX005 (ip), vehicle: saline with Tween-80) 112 % of control.

Take `Nc1cccc(S(=O)(=O)Nc2ncc(Cl)cn2)c1.[Ag]`: the T/C under setting [10] is 93 % of control and the T/C under setting [11] was 108 % of control.

Turning to `NC(=O)c1nnn2c1nc(N)c1cc(Cl)ccc12`, the T/C was 100 % of control under setting [12], 104 % of control under setting [13] and 99 % of control under setting [14].

`CCN(CC)CCN(CC)c1ccccc1`: the T/C under setting [1] was 105 % of control and the T/C under setting [2] was 102 % of control.

With `O=C(/C=C\c1ccc(NCc2ccc(C(=O)O)cc2)cc1)CCl`, the T/C was 122 % of control (dose: 25.0 mg/kg/injection, schedule: Q01DX009 (ip), vehicle: saline with Tween-80); 100 % of control under setting [8]; 122 % of control under setting [4]; 104 % of control under setting [9]; 109 % of control under setting [7].

Turning to `COc1ccc2[nH]c3c(c(=O)n(C)c(=O)n3C)c2c1`, the T/C by setting is: under setting [12], 92 % of control; under setting [13], 93 % of control; under setting [14], 92 % of control.

As to `CC(C(=O)c1ccccc1)c1nc2nnc(N)n2[nH]c1=O` (centres undefined), the T/C was 95 % of control (dose: 60.0 mg/kg/injection, schedule: Q01DX005 (ip), vehicle: saline); 100 % of control (dose: 120.0 mg/kg/injection, schedule: Q01DX005 (ip), vehicle: saline); 95 % of control (dose: 240.0 mg/kg/injection, schedule: Q01DX005 (ip), vehicle: saline).

Take `c1ccc2c(c1)NC1=C(CSCC1)c1nncn1-2`: the T/C reads like this: (dose: 100.0 mg/kg/injection, schedule: Q05DX002 (ip), vehicle: Klucel (hydroxypropylcellulose) (HPC)) 104 % of control; (dose: 200.0 mg/kg/injection, schedule: Q05DX002 (ip), vehicle: Klucel (hydroxypropylcellulose) (HPC)) 100 % of control; (dose: 400.0 mg/kg/injection, schedule: Q05DX002 (ip), vehicle: Klucel (hydroxypropylcellulose) (HPC)) 109 % of control.

As to `CCOC(=O)/C(C#N)=C/N1CCCC1`, the T/C was 107 % of control (dose: 6.25 mg/kg/injection, schedule: Q01DX005 (ip), vehicle: saline with Tween-80); 96 % of control (dose: 12.5 mg/kg/injection, schedule: Q01DX005 (ip), vehicle: saline with Tween-80); 104 % of control (dose: 25.0 mg/kg/injection, schedule: Q01DX005 (ip), vehicle: saline with Tween-80).

Consider `CCCCCC(=O)N1SC(NC(=O)OC)=Nc2ccccc21`, for which the T/C is 102 % of control (dose: 50.0 mg/kg/injection, schedule: Q01DX005 (ip), vehicle: acetone); 107 % of control (dose: 100.0 mg/kg/injection, schedule: Q01DX005 (ip), vehicle: acetone); 107 % of control (dose: 200.0 mg/kg/injection, schedule: Q01DX005 (ip), vehicle: acetone).

Take `Cc1ccc(S(=O)(=O)N/N=C/C(C)c2cccnc2)cc1` (centres undefined): the T/C reads like this: under setting [4], 105 % of control; under setting [5], 99 % of control; under setting [6], 107 % of control.

`C=CC(=O)NCC(=O)O`: the T/C by setting is: under setting [10], 100 % of control; under setting [11], 103 % of control; (dose: 200.0 mg/kg/injection, schedule: Q01DX009 (ip), vehicle: saline) 109 % of control.
